Experimental data published in patent US9962384B1, “Levosimendan compound for preventing or treating tau-related diseases” (KOREA INSTITUTE OF SCIENCE AND TECHNOLOGY, priority 2017, dated 2018).
One block for each compound: values may come before it.

What was measured:
tau [1] = biological target: T1, tau (Homo sapiens, UniProt P10636); assay: Intracellular tau aggregation in tau-BiFC cell model (forskolin-induced); assay type: cell-based; set-up: fused on or other part: N-terminal and C-terminal non-fluorescent fragments of Venus fused to tau (BiFC reporter handles); conditions: forskolin 30 μM; for tau aggregation in tau-BiFC cells (Example 5, metabolites comparison): varying concentrations; for concentration dependence of tau-BiFC fluorescence value: 1-100 μM
Protocol: Furthermore, the following examples were performed based on tau-BiFC cell model. The tau-BiFC cell model is a reliable system for monitoring the interaction between tau oligomers, and is a Venus protein-based BiFC method in which the N-terminal and C-terminal non-fluorescent fragments of Venus protein are fused to tau. A further detailed definition and method for the tau-BiFC cell model are as described in Korean Patent No. 10-1546485.
(§1) To screen a new tau aggregation inhibitor, tau-BiFC cell model making it possible to easily observe tau oligomer formation in living cells was treated an FDA-approved drug library (a total of 1018 compounds). As shown in a schematic view of FIG. 1, tau-BiFC cells were plated on a 384-well plate. On the next day, the tau-BiFC cells were treated with FDA-approved drugs (treatment concentration: 10 μM) together with the compound forskolin (treatment concentration: 30 μM) that activates tau kinase PKA to induce tau aggregation. After 46 hours, the tau aggregation inhibitory activities of the drugs were analyzed, and cell viability by the compounds was analyzed by cell nucleus staining with Hoechst. […] To further confirm the tau aggregation inhibitory activity of the selected levosimendan, tau-BiFC cells were treated with DMSO, MB or levosimendan (treatment concentration: 10 μM) together with the compound forskolin (treatment concentration: 30 μM) that activates tau kinase PKA to induce tau aggregation. At this time, methylene blue (MB) known to show tau aggregation inhibitory activity was used as a comparative compound (positive control). After 48 hours, the tau aggregation inhibitory activity of the compound was analyzed, and cell viability by the compound was analyzed by cell nucleus staining with Hoechst.
(§2) In addition, in order to further confirm the tau aggregation inhibitory activity of the selected levosimendan compound in living cells, tau-BiFC cells were treated with the tau inducer forskolin (treatment concentration: 30 μM) together with 1, 3, 10, 30 or 100 μM of the levosimendan compound. After 48 hours, tau aggregation reactions in the cells were analyzed by analysis of tau-BiFC response, and cell viability was analyzed to determine the toxicity of the compound.
The levosimendan compound has two metabolite forms ([…] and activated (OR-1896)). […] Specifically, tau-BiFC cells were treated with varying concentrations of each of MB, levosimendan, OR-1855 and OR-1896 compounds together with the tau aggregation inducer forskolin (treatment concentration: 30 μM). After 48 hours, the extent of tau aggregation in the cells was analyzed.

tau-BiFC cells = assay: Cell viability by cell nucleus staining with Hoechst; assay type: cell-based; conditions: forskolin 30 μM; for cytotoxicity / cell viability (number of nuclei stained with Hoechst): 10 μM compound, 48 hours
Protocol: as §1
Furthermore, it could be seen that the fluorescence value of the test group (levosimendan) decreased, similar to that of the positive control group (MB).
as §2

[2] = test system: mouse cerebral cortical neuronal cells; assay: Neuronal cell protection against TauK18P301L damage; assay type: cell-based; conditions: 10 μM, 2 hours before TauK18P301L 20 μg/mL; E18, DIV8
From the text: Whether the levosimendan compound would protect neuronal cells from neuronal cell damage was examined.

tau [3] = biological target: T1, tau; assay: In vitro tau aggregation with ThS (Thioflavin S); assay type: biochemical; conditions: Tau pre-Agg+100 uM DTT+0.1 mg/mL Heparin, 37° C.
Protocol: (§3) Thus, whether the levosimendan compound would be involved in the tau aggregation process to inhibit tau aggregation was examined. Specifically, whether the levosimendan compound would inhibit the tau aggregation process was analyzed in vitro, and whether the levosimendan compound would prevent additional aggregation of aggregated tau and dissociate the aggregation was analyzed in vitro. The tau aggregation process (Tau pre-Agg+100 uM DTT+0.1 mg/mL Heparin, incubated at 37° C.) in vitro was treated with varying concentrations of the levosimendan compound, and the degree of tau aggregation was analyzed with ThS (Thioflavin S). The ThS is a dye capable of measuring tau aggregation in vitro in real time, and is used as a fluorescence probe that detects β-sheet aggregation.

tau aggregates = tau aggregates (Homo sapiens, UniProt P10636); assay: In vitro dissociation of tau aggregates; assay type: biochemical; conditions: Tau-Agg+100 uM DTT+0.1 mg/mL Heparin, 37° C., varying concentrations
Protocol: as §3

tau kinase = assay: Tau kinase activity
tau [4] = biological target: T1, tau; assay: Tau phosphorylation by Western blot of tau-BiFC cell lysates; assay type: cell-based; set-up: fused on or other part: N-terminal and C-terminal non-fluorescent fragments of Venus fused to tau (BiFC reporter handles); conditions: forskolin 30 μM, 36 hours
Protocol: In order to confirm whether the levosimendan compound would show tau aggregation inhibitory activity by inhibiting tau phosphorylation, Tau-BiFC cells were treated with the tau aggregation inducer forskolin (treatment concentration: 30 μM) and the levosimendan compound (treatment concentration: 15 μM). After 36 hours, the tau-BiFC cell lysates were analyzed by Western blot analysis to measure tau phosphorylation.

[5] = 15 μM, vs forskolin-treated cells

T1 sequence (P10636 1-441 isoform P10636-8): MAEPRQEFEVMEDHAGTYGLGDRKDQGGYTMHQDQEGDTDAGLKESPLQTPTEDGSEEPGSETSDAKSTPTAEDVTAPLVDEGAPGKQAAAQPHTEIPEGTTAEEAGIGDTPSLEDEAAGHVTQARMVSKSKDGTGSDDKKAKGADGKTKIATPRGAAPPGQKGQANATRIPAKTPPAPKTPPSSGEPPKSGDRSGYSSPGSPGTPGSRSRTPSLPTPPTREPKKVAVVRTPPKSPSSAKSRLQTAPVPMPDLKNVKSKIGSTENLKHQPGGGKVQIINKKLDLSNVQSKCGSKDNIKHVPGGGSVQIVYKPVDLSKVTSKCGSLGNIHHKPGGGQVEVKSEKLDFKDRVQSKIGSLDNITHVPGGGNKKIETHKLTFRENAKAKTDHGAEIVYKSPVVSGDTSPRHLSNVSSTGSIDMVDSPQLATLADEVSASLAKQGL
Sequence of tau aggregates (P10636 1-441 isoform P10636-8): as above

SMILES: CC(=O)Nc1ccc(C2=NNC(=O)C[C@H]2C)cc1 [OR-1896]
tau aggregation in tau-BiFC cells (Example 5, metabolites comparison) (tau [1]; 48 hours): did not show tau aggregation inhibitory activity

IC50 (tau [3]): 4.71 µM | IC50 (tau [1]; 1, 3, 10, 30 or 100 μM compound, 48 hours, read-out: IC50 of decrease in tau-BiFC fluorescence value): 2.2 µM | tau phosphorylation decrease at Ser199 (tau [4]; [5]): about 34% | tau phosphorylation decrease at Ser396 (tau [4]; [5]): about 35%
SMILES: C[C@@H]1CC(=O)NN=C1c1ccc(NN=C(C#N)C#N)cc1 [levosimendan]
cell viability in drug library screening (tau-BiFC cells; 10 μM, 46 hours): cell viability equal to that of drug-untreated normal cells | damage to neuronal cells, neuronal cell morphology and neurite length [2]: decreased compared to that in the negative control group (DMSO) and the positive control group (MB) | effect on tau aggregates in vitro (tau aggregates): had the effect of dissociating tau aggregates | changes in tau kinase activity (tau kinase): did not affect changes in tau kinase activity | tau-BiFC fluorescence value (RFU), tau aggregation inhibitory activity (tau [1]; 10 μM compound, 48 hours): decreased compared to that of the negative control group (DMSO) | tau aggregation inhibitory activity in drug library screening (tau [1]; 10 μM, 46 hours, 384-well plate): tau aggregation inhibitory activity equal to that of methylene blue (MB) | concentration dependence of tau-BiFC fluorescence value (tau [1]; 48 hours): concentration-dependent decrease in the fluorescence value | tau aggregation in tau-BiFC cells (Example 5, metabolites comparison) (tau [1]; 48 hours): decreased similar to that in the positive control group (MB) | tau phosphorylation compared to forskolin-treated cells (tau [4]): decreased compared to that in the forskolin-treated cells

SMILES: CN(C)c1ccc2nc3ccc(=[N+](C)C)cc-3sc2c1 [MB, methylene blue]
cytotoxicity / cell viability (number of nuclei stained with Hoechst) (tau-BiFC cells): decreased | cytotoxicity / cell viability (number of nuclei stained with Hoechst) (tau-BiFC cells; listed as methylene blue): cytotoxicity higher than that of the levosimendan compound | concentration dependence of tau-BiFC fluorescence value (tau [1]; 48 hours): concentration-dependent decrease in the fluorescence value | tau phosphorylation compared to forskolin-treated cells (tau [4]): decreased compared to that in the forskolin-treated cells

SMILES: C[C@@H]1CC(=O)NN=C1c1ccc(N)cc1 [OR-1855]
tau aggregation in tau-BiFC cells (Example 5, metabolites comparison) (tau [1]; 48 hours): did not show tau aggregation inhibitory activity
